Values after ≈ are worked out from the molar mass of the structure shown. Residues, ends and D or L forms follow the SMILES beside them.

What is called solubility is the dissolved amount per volume that the medium holds. The term EC50 denotes the concentration needed to bring the measured effect to its halfway point.

One series in a line: physchem. In kind it is physicochemical. How it is done: Example 6: Solubility Determination
Peptides (as TFA-salts) were weighed out in a filter unit (Mini-UniPrep Syringeless Filter 0.45 μm, Whatman PVDF), and 0.1 M phosphate buffer at pH 6 to 8 was added to achieve 10 mg/mL final peptide concentration. The peptides were dissolved by shaking the filter units horizontally at 350 rpm for 2 hours at room temperature. Samples were then filtered to remove any insoluble particles. Controls were prepared by weighing out the corresponding peptide solid material and dissolving it in an appropriate vehicle (e.g. buffer or DMSO) to a final concentration of 1 mg/mL. Both, the control and sample were analyzed by reversed phase chromatography. The area under the peak of the sample was compared to the control and the solubility was calculated based on that ratio. The pH was measured and recorded for each sample.

In series [1] the target is T1, human NMUR2 receptor (Homo sapiens, UniProt Q9GZQ4). Description: IP1 Gq HTRF assay, activation of human NMUR2 in buffer. In kind it is cell-based. Also on record: expressed in transfected cells; host or cells: CHO-K1. As to conditions: CHO-K1 cells expressing human NMUR2, stimulation buffer with 0.1% BSA; read-out: EC50 (hNMUR2) buffer. The gist of the method: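 IP-One HTRF competition (665/620 nm ratio) read after 1 h agonist exposure at 37 °C in pH 7.4 HEPES/HBSS stimulation buffer containing 50 mM LiCl, 0.1% BSA, 1% DMSO. Cells: CHO-K1 stably expressing human NMUR2 or NMUR1. EC50 by 4-parameter nonlinear regression of 8-point curves.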

Series [2] concerns the target T1, human NMUR2 receptor. Description: IP1 Gq HTRF assay, activation of human NMUR2 in human plasma. In kind it is cell-based. Also on record: expressed in transfected cells; host or cells: CHO-K1. The conditions noted are these: CHO-K1 cells expressing human NMUR2, 100% human plasma; read-out: EC50 (hNMUR2) human plasma. The gist of the method:
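EC50 obtained via 4-parameter sigmoidal regression of HTRF IP-One signal (665 nm/620 nm), which falls as intracellular IP1 rises. Stimulation: 1 h, 37° C, peptides in human plasma plus 50 mM LiCl, 1% DMSO final, on NMUR2-expressing CHO-K1 cells, 8 concentrations.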
In general terms: TR-FRET usually uses a lanthanide donor and a delayed reading to cut background.

Series [3] deals with T2, human neuromedin U receptor 1 (human, UniProt Q9HB89 24-426).
T2 sequence (looked up): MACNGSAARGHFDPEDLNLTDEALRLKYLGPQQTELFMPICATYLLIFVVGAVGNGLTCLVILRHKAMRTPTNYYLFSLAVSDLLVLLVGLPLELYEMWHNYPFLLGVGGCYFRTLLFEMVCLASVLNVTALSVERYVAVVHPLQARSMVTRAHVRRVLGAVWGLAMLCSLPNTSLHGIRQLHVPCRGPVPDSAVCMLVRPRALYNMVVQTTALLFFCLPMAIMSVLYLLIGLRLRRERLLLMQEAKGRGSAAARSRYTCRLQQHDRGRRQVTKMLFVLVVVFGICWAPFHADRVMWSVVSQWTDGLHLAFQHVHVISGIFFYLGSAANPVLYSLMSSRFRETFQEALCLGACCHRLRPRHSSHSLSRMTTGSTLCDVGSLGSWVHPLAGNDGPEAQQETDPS
As to the kind of experiment: cell-based or functional assay.

T1 sequence (Q9GZQ4 whole entry): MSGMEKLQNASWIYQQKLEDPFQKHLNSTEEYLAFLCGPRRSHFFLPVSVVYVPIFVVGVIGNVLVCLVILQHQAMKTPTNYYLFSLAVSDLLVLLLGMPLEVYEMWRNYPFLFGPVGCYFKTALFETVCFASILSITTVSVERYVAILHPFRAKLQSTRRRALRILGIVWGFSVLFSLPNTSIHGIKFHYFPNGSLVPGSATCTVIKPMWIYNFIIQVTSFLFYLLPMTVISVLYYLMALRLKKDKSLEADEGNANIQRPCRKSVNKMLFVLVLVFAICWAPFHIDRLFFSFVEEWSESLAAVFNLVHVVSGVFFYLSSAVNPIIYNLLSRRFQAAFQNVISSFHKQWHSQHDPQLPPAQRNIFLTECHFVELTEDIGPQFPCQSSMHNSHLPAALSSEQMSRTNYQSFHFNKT

`CCCC[C@H](NC(=O)[C@H](CC(C)C)N(C)C(=O)[C@H](Cc1ccccc1)NC(=O)[C@H](Cc1ccc(O)cc1)NC(=O)CN1CCN(CCNC(=O)CN(C)C(=O)CN(C)C(=O)CN(C)C(=O)CN(C)C(=O)CN(C)C(=O)CN(C)C(=O)CC[C@H](NC(=O)CC[C@H](NC(=O)CC[C@H](NC(=O)CCCCCCCCCCCCCCCCC(=O)O)C(=O)O)C(=O)O)C(=O)O)CC1)C(=O)N[C@@H](CCCNC(=N)N)C(=O)N1CCC[C@H]1C(=O)N[C@@H](CCCNC(=N)N)C(=O)NCC(N)=O` [Compound 68, C18DA-gGlu3-Sar6-AEPipAc-Tyr-Phe-NMeLeu-Nle-Arg-Pro-Arg-Gly-NH2] (HELM PEPTIDE1{[O=C(O)CCCCCCCCCCCCCCCCC(=O)[*:2]].[gGlu].[gGlu].[gGlu].[Sar].[Sar].[Sar].[Sar].[Sar].[Sar].[O=C(CN1CCN(CCN[*:1])CC1)[*:2]].Y.F.[meL].[Nle].R.P.R.G.[am]}$$$$V2.0) gave a solubility at 2 h in “physchem” (pH 7.6) of 900 µg/mL (≈ 389 µM). The EC50 was 1.2 nM on human NMUR2 receptor [1] and 9.6 nM on human NMUR2 receptor [2].

The molecule `CCCC[C@H](NC(=O)[C@H](CC(C)C)N(C)C(=O)[C@H](Cc1ccccc1)NC(=O)[C@H](Cc1ccc(O)cc1)NC(=O)CN1CCN(CCNC(=O)CN(C)C(=O)CN(C)C(=O)CN(C)C(=O)CN(C)C(=O)CN(C)C(=O)CN(C)C(=O)CN(C)C(=O)CN(C)C(=O)CN(C)C(=O)CC[C@H](NC(=O)CC[C@H](NC(=O)CC[C@H](NC(=O)CCCCCCCCCCCCCCCCC(=O)O)C(=O)O)C(=O)O)C(=O)O)CC1)C(=O)N[C@@H](CCCNC(=N)N)C(=O)N1CCC[C@H]1C(=O)N[C@@H](CCCNC(=N)N)C(=O)NCC(N)=O` [Compound 72, C18DA-gGlu3-Sar9-AEPipAc-Tyr-Phe-NMeLeu-Nle-Arg-Pro-Arg-Gly-NH2] (HELM PEPTIDE1{[O=C(O)CCCCCCCCCCCCCCCCC(=O)[*:2]].[gGlu].[gGlu].[gGlu].[Sar].[Sar].[Sar].[Sar].[Sar].[Sar].[Sar].[Sar].[Sar].[O=C(CN1CCN(CCN[*:1])CC1)[*:2]].Y.F.[meL].[Nle].R.P.R.G.[am]}$$$$V2.0) came in with a solubility at 2 h in the series “physchem” (pH 7.2) of 9600 µg/mL (≈ 3800 µM). The results for the 50% effective concentration (EC50) on human NMUR2 receptor [1] and at human NMUR2 receptor [2] were 0.9 nM and 10.4 nM, respectively.

B1: C18DA-gGlu3-Sar12-AEPipAc-Tyr-Phe-NMeLeu-Nle-Dbu-Pro-Arg-Gly-NH2 (peptide)
peptide: EEEXXXXXXXXXXXXXYFLXXPRG
HELM: PEPTIDE1{[O=C(O)CCCCCCCCCCCCCCCCC(=O)[*:2]].[gGlu].[gGlu].[gGlu].[Sar].[Sar].[Sar].[Sar].[Sar].[Sar].[Sar].[Sar].[Sar].[Sar].[Sar].[Sar].[O=C(CN1CCN(CCN[*:1])CC1)[*:2]].Y.F.[meL].[Nle].[Dab].P.R.G.[am]}$$$$V2.0
SMILES: CCCC[C@H](NC(=O)[C@H](CC(C)C)N(C)C(=O)[C@H](Cc1ccccc1)NC(=O)[C@H](Cc1ccc(O)cc1)NC(=O)CN1CCN(CCNC(=O)CN(C)C(=O)CN(C)C(=O)CN(C)C(=O)CN(C)C(=O)CN(C)C(=O)CN(C)C(=O)CN(C)C(=O)CN(C)C(=O)CN(C)C(=O)CN(C)C(=O)CN(C)C(=O)CN(C)C(=O)CC[C@H](NC(=O)CC[C@H](NC(=O)CC[C@H](NC(=O)CCCCCCCCCCCCCCCCC(=O)O)C(=O)O)C(=O)O)C(=O)O)CC1)C(=O)N[C@@H](CCN)C(=O)N1CCC[C@H]1C(=O)N[C@@H](CCCNC(=N)N)C(=O)NCC(N)=O
B1 yielded an EC50 (hNMUR1) buffer in series [3] of 1700 nM.

B2: C18DA-gGlu3-Sar9-AEPipAc-Tyr-Phe-NMeLeu-Nle-Dbu-NMeAla-Arg-Gly-NH2 (peptide)
peptide: EEEXXXXXXXXXXYFLXXARG
HELM: PEPTIDE1{[O=C(O)CCCCCCCCCCCCCCCCC(=O)[*:2]].[gGlu].[gGlu].[gGlu].[Sar].[Sar].[Sar].[Sar].[Sar].[Sar].[Sar].[Sar].[Sar].[O=C(CN1CCN(CCN[*:1])CC1)[*:2]].Y.F.[meL].[Nle].[Dab].[meA].R.G.[am]}$$$$V2.0
SMILES: CCCC[C@H](NC(=O)[C@H](CC(C)C)N(C)C(=O)[C@H](Cc1ccccc1)NC(=O)[C@H](Cc1ccc(O)cc1)NC(=O)CN1CCN(CCNC(=O)CN(C)C(=O)CN(C)C(=O)CN(C)C(=O)CN(C)C(=O)CN(C)C(=O)CN(C)C(=O)CN(C)C(=O)CN(C)C(=O)CN(C)C(=O)CC[C@H](NC(=O)CC[C@H](NC(=O)CC[C@H](NC(=O)CCCCCCCCCCCCCCCCC(=O)O)C(=O)O)C(=O)O)C(=O)O)CC1)C(=O)N[C@@H](CCN)C(=O)N(C)[C@@H](C)C(=O)N[C@@H](CCCNC(=N)N)C(=O)NCC(N)=O
With B2, the EC50 (hNMUR1) buffer in series [3] was > 1000 nM.

B3: C18DA-gGlu3-Sar9-AEPipAc-Tyr-Phe-NMeLeu-Nle-Orn-Pro-Arg-Gly-NH2 (peptide)
peptide: EEEXXXXXXXXXXYFLXXPRG
HELM: PEPTIDE1{[O=C(O)CCCCCCCCCCCCCCCCC(=O)[*:2]].[gGlu].[gGlu].[gGlu].[Sar].[Sar].[Sar].[Sar].[Sar].[Sar].[Sar].[Sar].[Sar].[O=C(CN1CCN(CCN[*:1])CC1)[*:2]].Y.F.[meL].[Nle].[Orn].P.R.G.[am]}$$$$V2.0
SMILES: CCCC[C@H](NC(=O)[C@H](CC(C)C)N(C)C(=O)[C@H](Cc1ccccc1)NC(=O)[C@H](Cc1ccc(O)cc1)NC(=O)CN1CCN(CCNC(=O)CN(C)C(=O)CN(C)C(=O)CN(C)C(=O)CN(C)C(=O)CN(C)C(=O)CN(C)C(=O)CN(C)C(=O)CN(C)C(=O)CN(C)C(=O)CC[C@H](NC(=O)CC[C@H](NC(=O)CC[C@H](NC(=O)CCCCCCCCCCCCCCCCC(=O)O)C(=O)O)C(=O)O)C(=O)O)CC1)C(=O)N[C@@H](CCCN)C(=O)N1CCC[C@H]1C(=O)N[C@@H](CCCNC(=N)N)C(=O)NCC(N)=O
In turn, B3 gave an EC50 (hNMUR1) buffer in series [3] of 770 nM.

B4: C18DA-gGlu3-Sar15-AEPipAc-Tyr-Phe-NMeLeu-Nle-Dbu-Pro-Arg-Gly-NH2 (peptide)
peptide: EEEXXXXXXXXXXXXXXXXYFLXXPRG
HELM: PEPTIDE1{[O=C(O)CCCCCCCCCCCCCCCCC(=O)[*:2]].[gGlu].[gGlu].[gGlu].[Sar].[Sar].[Sar].[Sar].[Sar].[Sar].[Sar].[Sar].[Sar].[Sar].[Sar].[Sar].[Sar].[Sar].[Sar].[O=C(CN1CCN(CCN[*:1])CC1)[*:2]].Y.F.[meL].[Nle].[Dab].P.R.G.[am]}$$$$V2.0
SMILES: CCCC[C@H](NC(=O)[C@H](CC(C)C)N(C)C(=O)[C@H](Cc1ccccc1)NC(=O)[C@H](Cc1ccc(O)cc1)NC(=O)CN1CCN(CCNC(=O)CN(C)C(=O)CN(C)C(=O)CN(C)C(=O)CN(C)C(=O)CN(C)C(=O)CN(C)C(=O)CN(C)C(=O)CN(C)C(=O)CN(C)C(=O)CN(C)C(=O)CN(C)C(=O)CN(C)C(=O)CN(C)C(=O)CN(C)C(=O)CN(C)C(=O)CC[C@H](NC(=O)CC[C@H](NC(=O)CC[C@H](NC(=O)CCCCCCCCCCCCCCCCC(=O)O)C(=O)O)C(=O)O)C(=O)O)CC1)C(=O)N[C@@H](CCN)C(=O)N1CCC[C@H]1C(=O)N[C@@H](CCCNC(=N)N)C(=O)NCC(N)=O
Regarding B4, the EC50 (hNMUR1) buffer in series [3] was > 1000 nM.

The values are drawn from patent US20240279278A1, “NMU RECEPTOR 2 AGONISTS” (Boehringer Ingelheim International GmbH, priority 2023, published 2024).
